Assay [1] has as its target T1, Alpha 2 Adrenergic Receptors (Oryctolagus cuniculus, UniProt Q5ZQK3).
T1 construct: from tissue; host or cells: New Zealand white rabbit vas deferens, prostatic end, field stimulated
T1 sequence (Q5ZQK3 1-451): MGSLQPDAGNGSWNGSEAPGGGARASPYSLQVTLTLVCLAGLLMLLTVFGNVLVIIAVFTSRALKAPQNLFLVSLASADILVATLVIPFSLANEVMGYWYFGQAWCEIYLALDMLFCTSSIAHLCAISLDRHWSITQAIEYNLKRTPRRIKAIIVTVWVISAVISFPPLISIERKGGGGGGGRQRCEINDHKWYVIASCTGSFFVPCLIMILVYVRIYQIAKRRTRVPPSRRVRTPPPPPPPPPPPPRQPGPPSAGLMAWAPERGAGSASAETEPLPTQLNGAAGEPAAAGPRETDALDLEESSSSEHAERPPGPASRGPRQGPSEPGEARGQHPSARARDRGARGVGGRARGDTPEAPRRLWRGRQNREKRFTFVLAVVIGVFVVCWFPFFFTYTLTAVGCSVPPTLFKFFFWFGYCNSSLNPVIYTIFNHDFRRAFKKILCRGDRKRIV
Put plainly: Rabbit Vas Deferens: Alpha 2 Adrenergic Receptors. It is filed as cell-based, New Zealand white rabbit. Conditions: 35° C., field stimulated, 50% reduction in response height, n = number of test runs. How it is done: (§1) The tetrahydroquinoxalines produced in Examples 1 to 3 were tested for activity using the following in vitro methods.
Rabbit Vas Deferens: Alpha 2 Adrenergic Receptors
New Zealand white rabbits (2-3 kg) were killed by CO2 inhalation and the vasa deferentia removed. The prostatic ends of the vasa deferentia (2-3 cm lengths) were mounted between platinum ring electrodes in 9 ml organ baths and bathed in Krebs bicarbonate solution of the following composition (millimolar): NaCl 118.0; KCl 4.7; CaCl2 2.5; MgSO4 1.2; KH2 PO4 1.2; glucose 11.0; NaHCO3 25.0; which solution was maintained at 35° C. and bubbled with 95% O2 and 5% CO2. The initial tension of the vas deferens was 0.5 g. The tissues were left to equilibrate for 30 minutes before stimulation was started. Vasa were then field stimulated (0.1 Hz, 2 ms pulse width at 90 mA) using a square wave stimulator (WPI A310 Accupulser with A385 stimulus). […] Cumulative concentration-response curves were obtained for the tetrahydroquinoxaline being tested with a 4 minute contact time at each concentration. The reduction in response height was measured and expressed as a percentage of the height of the response before the addition of tetrahydroquinxoaline. Concentration response curves for each of tetrahydroquinoxalines were plotted. The effective concentration required for a 50% reduction in response height, expressed as EC50, were obtained from these curves and are set forth below.

In another assay the test system is intraocular pressure. Put plainly: effect on intraocular pressure, topical unilateral administration to rabbit eye. The format is in vivo, New Zealand white rabbit. Conditions: 0.1% (W/V); for Difference In Intraocular Pressure, Initial Effect On Treated Eye / Difference In Intraocular Pressure, Maximum Effect on Treated Eye / Difference In Intraocular Pressure, Maximum Effect On Untreated Eye: single 50 micro liter drop, N.S. = not statistically significant; for Difference In Intraocular Pressure, Maximum Effect On Untreated Eye: untreated (contralateral) eye; for effect on intraocular pressure in the treated eye (in words): treated rabbit eye. How it is done:
The three (3) tetrahydroquinoxaline derivatives produced in accordance with Examples 1 to 3 were tested to determine what effect, if any, these materials have on intraocular pressure.
Each of these materials was dissolved in distilled water at a concentration of 0.1% (W/V). Each of these solutions was administered topically and unilaterally to one eye of a drug-naive, unanesthetized New Zealand white rabbit in a single 50 micro liter drop. The contralateral eye received an equal volume of saline prior to determining the intraocular pressure after the mixture was administered. Also, approximately 10 micro liters of 0.5% (W/V) proparacaine (topical anesthetic) was applied to the corneas of each of the rabbits before determining intraocular pressure. As a control test, six (6) other drug-naive, unanesthetized New Zealand white rabbits were treated and tested as described above except that no tetrahydroquinoxaline derivative was included in the solutions administered to the eyes.
The intraocular pressure was determined in both eyes of each rabbit before and after the solutions were administered. Such intraocular pressure determinations were made in the conventional manner using conventional equipment.

Assay [2] concerns Alpha 1 Adrenergic Receptors. Put plainly: Rabbit Aorta: Alpha 1 Adrenergic Receptors. The note with it: rabbit aorta rings, 37° C., field stimulated; n = number of test runs. The format is cell-based, albino rabbit. How it is done: as §1
Rabbit Aorta: Alpha 1 Adrenergic Receptors
(§2) Thoracic aorta and saphenous vein specimens were obtained from albino rabbits that were killed by CO2 inhalation. The aorta and saphenous vein were each cut into 3 mm rings. Tissues were placed in Krebs-Hensleit solution of the following composition (millimolar): NaCl 119; KCl 4.7; MgSO4 1.5, KH2 PO4 1.2; CaCl2 2.5; NaHCO3 25 and glucose 11.0. The solution also contained cocaine (0.1 millimolar) to block neuronal uptake and EDTA (30 micromolar) and ascorbic acid (5 micromolar) to prevent oxidation of the tetrahydroquinoxaline being tested. Tissues were hung in 10 ml organ baths and tension was measured via Grass FT03 force-displacement transducers. Resting tension was 1 g and 2 g for the saphenous vein and aorta, respectively. The solution was gassed with 95% O2 and 5% CO2 and maintained at 37° C. Tissues were allowed to equilibrate for 2 hours before stimulation and the cumulative addition of the tetrahydroquinoxaline being treated was started. Tissue stimulation was performed as with the rabbit vas deferens, described above. The contractions of the tissue were recorded isometrically as for the rabbit vas deferens assay. Cumulative concentration response curves were obtained and the EC50 valve developed for each tetrahydroquinoxaline tested in a manner similar to that for the rabbit vas deferens assay.

Assay [3] has as its system Alpha 3 Adrenergic Receptors. Put plainly: Rabbit Saphenous Vein: Alpha 3 Adrenergic Receptors. The format is cell-based, albino rabbit. Conditions: rabbit saphenous vein rings, 37° C., field stimulated; n = number of test runs. How it is done:
as §1
Rabbit Saphenous Vein: Alpha 3 Adrenergic Receptors
as §2, with “Cumulative concentration response curves were obtained and the EC50 valve developed for each tetrahydroquinoxaline tested in a manner similar to that for the rabbit vas deferens assay.” left out

We go through three compounds from patent US5077292A, “(2-imidazolin-2-ylamino) tetrahydroquinoxalines and methods for using same” (priority 1989, dated 1991).

With `CC1CNc2c(ccc(NC3=NCCN3)c2Br)N1` (racemic) [Example 2, (±)2-Methyl-5-bromo-6-(2-imidazolin-2-ylamino)-1,2,3,4-tetrahydroquinoxaline], the EC50 in assay [1] came to 35.3 ± 3.9 nM. Also, in the assay on intraocular pressure, the “Difference In Intraocular Pressure, Initial Effect On Treated Eye” value was “N.S”; the “Difference In Intraocular Pressure, Maximum Effect on Treated Eye” value is -15.1 ± 3.3%; the “Difference In Intraocular Pressure, Maximum Effect On Untreated Eye” value is -8.6 ± 2.4%; the “effect on intraocular pressure in the treated eye (in words)” value was “effective to reduce intraocular pressure in the treated rabbit eye”. In addition, the “effect on intraocular pressure in the untreated eye (in words)” value with intraocular pressure (untreated rabbit eye) is reported as “reducing the intraocular pressure in the untreated rabbit eye”. Further, the response in assay [2] was half-maximal at 6750 ± 116 nM (EC50). This compound also registered an EC50 in assay [3] of 581 ± 29 nM.
As to `CC1CNc2ccc(NC3=NCCN3)c(Br)c2N1` (racemic) [Example 3, (±) 3-Methyl-5-bromo-6-(2-imidazolin-2-ylamino)-1,2,3,4-tetrahydroquinoxaline], the response in assay [1] was half-maximal at 21.3 ± 3 nM (EC50). In the assay on intraocular pressure, the “Difference In Intraocular Pressure, Initial Effect On Treated Eye” value is on record as “N.S”; the “Difference In Intraocular Pressure, Maximum Effect on Treated Eye” value is on record as -12.5 ± 2.2%; the “Difference In Intraocular Pressure, Maximum Effect On Untreated Eye” value is on record as “N.S”; the “effect on intraocular pressure in the treated eye (in words)” value was “effective to reduce intraocular pressure in the treated rabbit eye”. This compound also showed an EC50 in assay [2] of 1060 ± 271 nM.
Turning to `Brc1c(NC2=NCCN2)ccc2c1NCCN2` [drawing 5], in the assay on intraocular pressure, the “Difference In Intraocular Pressure, Initial Effect On Treated Eye” value was “+10.7 ± 3.6%”; the “Difference In Intraocular Pressure, Maximum Effect on Treated Eye” value is given as -16.0 ± 3.3%; the “Difference In Intraocular Pressure, Maximum Effect On Untreated Eye” value was “N.S”.

What is called EC50 is the midpoint of the concentration-response curve. Lower therefore signals a more potent agent.
